We go through one compound from patent US10654834B2 (Venenum Biodesign, LLC, priority 2016, dated 2020).

Data set [1] can be described thus: Bile weight after chronic dosing (5 days) in DIO mice. Particulars: 30 mg/kg + sitagliptin 10 mg/kg, after second and tenth treatment, versus sitagliptin alone. It counts as in vivo, mouse. On the procedure:
Bile Weight after Chronic Dosing of Compounds
In this study, chronic dosing of compounds of the present invention was examined to determine if they lead to an increase in bile weight.
FIG. 13 depicts the time course of bile weight changes over time (i.e., 0, 3, 6, 9, and 12 hours) after the second and the tenth treatment with Compound 268 using the protocol in Example 87.

Data set [2] in a line: Comparison of PK in DIO mice and lean mice. It counts as in vivo, mouse. Particulars: for Cmax / AUC(0-t) / Tmax: mouse, plasma; for AUC(0-t): read-out: AUC (0→4 h). On the procedure: Comparison of PK in DIO Mice and Lean Mice
The PK characteristics of Compound 268 were examined in non-fasted lean C57BL/6N and DIO mice (Taconic). Compound 268 was orally administered to both groups at 10 mg/kg by oral gavage and plasma concentration of the compound was determined as described in Example 81.
In addition, PK parameters were determined for Compound 268 (i.e., Cmax, Tmax, and AUC) following oral administration in four groups of mice: (i) fasted lean mice; (ii) non-fasted lean mice; (iii) non-fasted DIO mice; and (iv) lean mice receiving ABT.
The ABT treatment confirms that the low Cmax value of Compound 268 is attributed to […].

Data set [3] in a line: Portal vein versus systemic pharmacokinetics in hepatic portal vein cannulated CD(SD) rats. It counts as in vivo. The settings on record: male, rat, 10 mg/kg oral; for AUC(0-t): read-out: AUC (0→7 h). On the procedure: Low Level of Compounds is Attributed to Low Intestinal Absorption
In this study, we determined if low plasma level of the compounds of the present invention is due to low absorption in the gut, or due to the first pass effect (i.e., absorption followed by a rapid degradation of compounds by liver). Hepatic portal vein cannulated male CD(SD) rats obtained from Charles River Laboratory were utilized. In brief, Compound 268 was administered orally at 10 mg/kg, and the blood was obtained simultaneously from the portal vein and systemic circulation (retro-orbital sinus) at predose, 0.25, 0.5, 1, 2, and 4 hours post-dose, in EDTA coated tubes. The samples were processed into plasma and quantification of compound levels in the plasma was accomplished by means of LC-MS/MS analysis as described in Example 81.

The test system of the next data set is GLP-1. Kind of data set: Plasma GLP-1 time course after a single oral dose in DIO mice. The data set is classed as in vivo, mouse. The settings on record: 30 mg/kg + sitagliptin versus sitagliptin alone, 6-24 h. On the procedure: In this study, we evaluated if the observed GLP-1 elevation (induced by the compounds of the present invention) may be associated with gallbladder filling. We treated mice with Compound 268 and monitored the bile weight (a measure that indicated gallbladder filling) to determine if the compound retained more bile in the gallbladder as compared to the control mice (i.e., vehicle alone). A time course study was performed to measure weight of the bile aspirated from the gallbladder after oral administration of Compound 268 (30 mg/kg) in high fat diet induced obese (DIO) mice. In this study, GLP-1 levels were also measured at each time point (FIG. 9).
Approximately 12 week old DIO male mice (obtained from Taconic) were acclimated in the testing facility for over two weeks. The mice were provided a high fat diet [Research Diet D12492 (60% Fat kcal)] while in the testing facility. […] The blood samples were distributed as follows: 150-200 μL of blood were placed in an EDTA K^2+ tube containing 5 μL of 40 mg/mL aprotinin (Sigma A1153) and 1 μL of 10 mM sitagliptin (Sigma 58576) to be used for GLP-1 measurements; the remaining blood (≥250 μL) was placed in an EDTA K^2+ tube and plasma was processed for analytical chemistry and analyzed by LCMS/MS method as described in Example 81. […]

A short description of data set [4]: Body weight over 6 weeks of BID dosing in DIO mice. The data set is classed as in vivo, mouse. The settings on record: 30 mg/kg BID p.o. On the procedure:
Monitoring of Weight Loss after Multiple Weeks of Dosing Compounds
Compounds of the present invention were dosed for multiple weeks and were evaluated for their ability to cause mice to lose weight.
In the next series of studies (Examples 93-99), Male DIO mice were received at 12 weeks of age (from Taconic), and were single-housed at the testing facility and acclimated for at least 2 weeks. The mice were provided a high fat diet [Research Diet D12492 (60% Fat kcal)] while in the testing facility. Before the study initiation, the animals were randomized into 5 experimental groups by body weight. The vehicle group contained only 0.5% carboxymethylcellulose (medium viscosity)+0.25% Tween-80. The second group contained 10 mg/kg of the DPP-IV inhibitor Sitagliptin while the third group contained 30 mg/kg Compound 268. The fourth group contained the combination of 10 mg/kg Sitagliptin and 30 mg/kg Compound 268. The fifth group was the positive control for weight loss, Rimonabant. All mice were dosed BID at approximately 6:00 am and again at approximately 4:00 pm. The positive control rimonabant was administered at a dose of 10 mg/kg in the afternoon and the morning dosing was vehicle (no compound).
Compounds of the present invention were evaluated for their ability to cause mice to lose weight. Mice were dosed compounds for 6 weeks and body weights were recorded twice a week.

Setting [5] is: C57BL/6N, po, 10 mg/kg, Non-fasted DIO mice, oral (Table 58).
Setting [6] is: C57BL/6N, po, 10 mg/kg, Non-fasted Lean mice, oral (Table 58).
Setting [7] is: po, 10 mg/kg, Fasted Lean mice, oral (Table 58).
Setting [8] is: po, 10 mg/kg, lean mice receiving ABT (150 mg/kg), oral (Table 58).
[9] abbreviates: plasma (portal vein blood), Portal Vein bleed.
Where [10] appears, read: plasma (systemic blood), Peripheral bleed (retro-orbital sinus).

SMILES strings stand for the structures.

Take `N#Cc1ccc(CCNC(=O)[C@@H]2CCN2c2cc(N3CCC(CCNC(=O)NCCC(=O)O)CC3)nc(C(F)(F)F)n2)cc1` [Compound 268, (S)-3-(3-(2-(1-(6-(2-((4-cyanophenethyl)carbamoyl)azetidin-1-yl)-2-(trifluoromethyl)pyrimidin-4-yl)piperidin-4-yl)ethyl)ureido)propanoic acid]: the “bile weight after chronic dosing” value in data set [1] is reported as “no significant changes in bile weight”. Also, the Cmax is 0.6 nM in data set [2] (C57BL/6N, po, 10 mg/kg, DIO mice, Non-fasted PK, p.o. (Table 57)); 2.1 nM in data set [2] (C57BL/6N, po, 10 mg/kg, Lean mice, Non-fasted PK, p.o. (Table 57)); 0.57 nM in data set [2] (setting [5]); 2.1 nM in data set [2] (setting [6]); 12 nM in data set [2] (setting [7]); 4.2 nM in data set [2] (setting [8]). Besides, the peak concentration (Cmax) came to 15.7 ± 6.7 ng/mL in data set [3] (setting [9]) and 43.9 ± 50.2 ng/mL in data set [3] (setting [10]). The AUC(0-t) is 0.76 ng·h/mL in data set [2] (setting [5]); 2.9 ng·h/mL in data set [2] (setting [6]); 18 ng·h/mL in data set [2] (setting [7]); 5.1 ng·h/mL in data set [2] (setting [8]); 49.1 ± 47.3 ng·h/mL in data set [3] (setting [9]); 76.2 ± 84.3 ng·h/mL in data set [3] (setting [10]). In addition, the Tmax in data set [2] (C57BL/6N, po, DIO mice, Non-fasted PK, 10 mg/kg, p.o. (Table 57)) is 60 min; in data set [2] (10 mg/kg, Fasted Lean mice, oral (Table 58)), 15 min; in data set [2] (lean mice receiving ABT (150 mg/kg), oral (Table 58)) it was 30 min; in data set [3] (setting [9]), 15 to 60 min; in data set [3] (setting [10]), 15 to 60 min. For the same compound, the “Cmax profile in fasted lean, non-fasted lean, non-fasted DIO mice” value in data set [2] (oral administration) is “low Cmax profile”. In addition, in the data set on GLP-1, the “plasma GLP-1 levels” value was “significant elevation of GLP-1 levels”. Also, the body weight change entry in data set [4] is “modest weight loss”.

In general, Cmax refers to the highest concentration seen after dosing. Broadly, the Tmax is the time from dosing to the highest level.
